In brackets after ≈: the same amount, converted by molar mass.
Experiments:
[1] = test system: Trypanosoma cruzi; assay: Increase in squalene biosynthesis in Trypanosoma cruzi tulahuen 2 epimastigotes at ID50 concentration per 8 x 10^6 cells/ml after 120 mins by HPLC analysis (Rvb=0.6 to 2.1 ug/ml); assay type: functional
[2] = test system: Trypanosoma cruzi; assay: Antitrypanosomal activity against Trypanosoma cruzi tulahuen 2 after 5 days; assay type: functional; conditions: tulahuen 2, 120 h, read-out: ID50 (the source's name)
[3] = Selectivity index, ratio of IC50 for mouse J774 cells to ID50 for Trypanosoma cruzi tulahuen 2; assay type: toxicity, cell-based; conditions: J774 cells versus Trypanosoma cruzi Tulahuen 2, read-out: Selectivity Index
[4] = Cytotoxicity against mouse J774 cells after 48 hrs by MTT assay; assay type: cell-based; conditions: read-out: ID50
[5] = test system: Cryptococcus neoformans; assay: Antifungal activity against Cryptococcus neoformans ATCC 32264 after 48 hrs by broth microdilution technique; assay type: functional; conditions: ATCC 32264, 48 h
[6] = test system: Candida tropicalis; assay: Antifungal activity against Candida tropicalis C131-2000 after 48 hrs by broth microdilution technique; assay type: functional; conditions: C131-2000, 48 h
[7] = test system: Nannizzia gypsea; assay: Antifungal activity against Microsporum gypseum C 115 after 48 hrs by broth microdilution technique; assay type: functional; conditions: C 115, 48 h
[8] = test system: Candida albicans; assay: Antifungal activity against Candida albicans ATCC 10231 after 48 hrs by broth microdilution technique; assay type: functional; conditions: ATCC 10231, 48 h
[9] = test system: Trichophyton mentagrophytes; assay: Antifungal activity against Trichophyton mentagrophytes ATCC 9972 after 48 hrs by broth microdilution technique; assay type: functional; conditions: ATCC 9972, 48 h
[10] = test system: Trypanosoma cruzi; assay: Antitrypanosomal activity against Trypanosoma cruzi CL Brener after 5 days; assay type: functional; conditions: 120 h, read-out: ID50 (the source's name)
[11] = test system: Aspergillus flavus; assay: Antifungal activity against Aspergillus flavus ATCC 9170 after 48 hrs by broth microdilution technique; assay type: functional; conditions: ATCC 9170, 48 h
[12] = test system: Trichophyton rubrum; assay: Antifungal activity against Trichophyton rubrum C113 after 48 hrs by broth microdilution technique; assay type: functional; conditions: C113, 48 h
[13] = test system: Aspergillus fumigatus; assay: Antifungal activity against Aspergillus fumigatus ATCC 26934 after 48 hrs by broth microdilution technique; assay type: functional; conditions: ATCC 26934, 48 h
[14] = test system: Trypanosoma cruzi; assay: Decrease in ergosterol biosynthesis in Trypanosoma cruzi tulahuen 2 epimastigotes at ID50 concentration per 8 x 10^6 cells/ml after 120 mins by HPLC analysis (Rvb=6.8 +/- 0.5 ug/ml); assay type: functional
[15] = test system: Saccharomyces cerevisiae; assay: Antifungal activity against Saccharomyces cerevisiae ATCC 9763 after 48 hrs by broth microdilution technique; assay type: functional; conditions: ATCC 9763, 48 h
[16] = test system: Aspergillus niger; assay: Antifungal activity against Aspergillus niger ATCC 9029 after 48 hrs by broth microdilution technique; assay type: functional; conditions: ATCC 9029, 48 h
[17] = test system: Trypanosoma cruzi; assay: Ratio of ID50 for drug to ID50 for nifurtimox against Trypanosoma cruzi tulahuen 2 after 5 days; assay type: functional

IC50 [2]	IC50 [10]	Compound	Activity [1]	selectivity ratio [3]	CC50 at 48 h [4]	MIC [5]	MIC [6]	MIC [7]	MIC [8]	MIC [9]	MIC [11]	MIC [12]	MIC [13]	Activity [14]	MIC [15]	MIC [16]	Ratio [17]
> 25 µM		O=C(/C=C/c1ccco1)N1CCN(C/C=C/c2ccccc2)CC1	0.6 µg/mL														
5 µM		O=C(/C=C/c1ccc([N+](=O)[O-])o1)NCCO	0.6 µg/mL														
8.2 µM	6.4 µM	C=CCNC(=S)N/N=C/C=C/c1ccc([N+](=O)[O-])o1	15.9 µg/mL	24.4	200 µM	> 250 µg/mL	> 250 µg/mL	> 250 µg/mL	> 250 µg/mL	> 250 µg/mL	> 250 µg/mL	> 250 µg/mL	> 250 µg/mL	5.5 µg/mL	> 250 µg/mL	> 250 µg/mL	
1 µM		O=C(/C=C/c1ccc([N+](=O)[O-])o1)N1CCN(C/C=C/c2ccccc2)CC1	0.6 µg/mL														7
		C[C@@H]1[C@H](O)[C@@H](C)/C=C/C=C/C=C/C=C/C=C/C=C/C=C/[C@H](O[C@@H]2O[C@H](C)[C@@H](O)[C@H](N)[C@@H]2O)C[C@@H]2O[C@](O)(C[C@@H](O)C[C@@H](O)[C@H](O)CC[C@@H](O)C[C@@H](O)CC(=O)O[C@H]1C)C[C@H](O)[C@H]2C(=O)O [AMPHOTERICIN B]				0.25 µg/mL (≈ 0.271 µM)	0.5 µg/mL (≈ 0.541 µM)	0.05 µg/mL (≈ 0.0541 µM)	0.5 µg/mL (≈ 0.541 µM)	0.025 µg/mL (≈ 0.0271 µM)	0.25 µg/mL (≈ 0.271 µM)	0.025 µg/mL (≈ 0.0271 µM)	0.5 µg/mL (≈ 0.541 µM)		0.5 µg/mL (≈ 0.541 µM)	0.125 µg/mL (≈ 0.135 µM)	
		CC(=O)N1CCN(c2ccc(OCC3COC(Cn4ccnc4)(c4ccc(Cl)cc4Cl)O3)cc2)CC1 (configuration not stated) [KETOCONAZOLE]		< 10	< 100 µM	0.39 µg/mL (≈ 0.734 µM)	1.56 µg/mL (≈ 2.94 µM)	0.04 µg/mL (≈ 0.0753 µM)	1.56 µg/mL (≈ 2.94 µM)	0.025 µg/mL (≈ 0.047 µM)	1.56 µg/mL (≈ 2.94 µM)	0.01 µg/mL (≈ 0.0188 µM)	0.78 µg/mL (≈ 1.47 µM)		3.12 µg/mL (≈ 5.87 µM)	0.78 µg/mL (≈ 1.47 µM)	
		CC1CS(=O)(=O)CCN1/N=C/c1ccc([N+](=O)[O-])o1 (configuration not stated) [NIFURTIMOX]	0.6 µg/mL	41	316 µM												
		CN(C/C=C/C#CC(C)(C)C)Cc1cccc2ccccc12 [TERBINAFINE]	12 µg/mL	19.9	339 µM	0.25 µg/mL (≈ 0.858 µM)	1.56 µg/mL (≈ 5.35 µM)	0.125 µg/mL (≈ 0.429 µM)	0.78 µg/mL (≈ 2.68 µM)	0.075 µg/mL (≈ 0.257 µM)	0.5 µg/mL (≈ 1.72 µM)	0.075 µg/mL (≈ 0.257 µM)	0.5 µg/mL (≈ 1.72 µM)	2.7 µg/mL	0.5 µg/mL (≈ 1.72 µM)	0.5 µg/mL (≈ 1.72 µM)	
